US20230271949A1, “GLP-1R MODULATING COMPOUNDS” (ASCLETIS BIOSCIENCE CO., LTD., priority 2022, published 2023)

Biological target: GLP-1R (Homo sapiens, UniProt P43220)
Assay: GLP-1R agonist cAMP stimulation assay (HTRF cAMP)
Assay type: cell-based
Conditions: HEK293 cell line expressing GLP-1 target; HTRF cAMP agonist mode, 30 min at RT
Method: cAMP Detection Kit, Cisbio (Cat #62AM4PEJ)
The cell line was constructed by WuXi.
2. Methods • a) The compound source plate preparation: • The reference 7-37 was diluted from 500 nM, 4-fold, 10 points in DMSO using Bravo. The compounds were diluted from […], 3-fold, 10 points in DMSO using Bravo. • b) Transfer of compounds: • 1) Use Echo transfer 100 nL cpd to the OptiPlate-384 plate. • 2) Spin the plates at 1000 rpm for 5 sec. • c) Cell suspension preparation: • 1) Thaw 1 vial of GLP-1 cells rapidly in 37° C. water bath. • 2) Transfer cell suspension into 10 ml of HBSS in a 15 ml conical tube. • 3) Centrifuge cells at 1000 rpm for 5 min at room temperature to pellet cells • 4) Gently aspirate supernatant being careful not to aspirate cells. • 5) Flick pellet to loose cells and re-suspend the cell pellet in 10 ml HBSS. Use a sterile pipette to pipette up and down to dislodge clumps. • 6) Count cells for concentration and to determine cell viability on Vi-cell. • 7) Re-suspend the GLP-1 cells in assay buffer at a concentration of 1.0×E5/mL cells. • 8) Transfer 10 μL GLP-1 cells to OptiPlate-384 plate. • d) HTRF cAMP Assay for agonist: • 1) Incubate the plate at RT for 30 min before adding the detection reagent. • 2) Add 10 μL each of detection reagent using Electric Multiple Channel Pipette. • 3) Cover the 384 plate with TopSeal-A film and incubate for 60 minutes at room temperature. • Remove the TopSeal-A, read on EnVision.
Create a new log (Inhibitor) vs response—Variable slope mode in Prism5.0 software, substitute the standard curve concentration (x) and its corresponding 665/615 data (y) into the model, convert the standard curve concentration (abscissa) by x=log(x), and make the standard curve through the converted xy.
Transform the data of 665/615 in the whole plate into a column of data, substitute it into y in the table of standard curve concentration (x) and 665/615 data (y), copy the x (interpolatedx) corresponding to automatic conversion by the software into a table, convert it into cAMP level by the formula x=10^(x), and reset the data into 384 distribution.
% Activity=(cAMP level−LC)/(HC−LC)*100% • Z factor: 1-3*(STD_HC+[…])/(HC-LC) • Assay Window: HC/LC • LC: The average cAMP level of adding DMSO wells • HC: The average cAMP level of adding the top concentration of reference compounds wells.
Create a new […] in Prism5.0 software, substitute the sample concentration (x) and its corresponding % Activity data (y) into the model, convert the standard curve concentration (abscissa) to x=log(x), and make the sample curve through the converted xy.

Sequence of GLP-1R (P43220 24-463): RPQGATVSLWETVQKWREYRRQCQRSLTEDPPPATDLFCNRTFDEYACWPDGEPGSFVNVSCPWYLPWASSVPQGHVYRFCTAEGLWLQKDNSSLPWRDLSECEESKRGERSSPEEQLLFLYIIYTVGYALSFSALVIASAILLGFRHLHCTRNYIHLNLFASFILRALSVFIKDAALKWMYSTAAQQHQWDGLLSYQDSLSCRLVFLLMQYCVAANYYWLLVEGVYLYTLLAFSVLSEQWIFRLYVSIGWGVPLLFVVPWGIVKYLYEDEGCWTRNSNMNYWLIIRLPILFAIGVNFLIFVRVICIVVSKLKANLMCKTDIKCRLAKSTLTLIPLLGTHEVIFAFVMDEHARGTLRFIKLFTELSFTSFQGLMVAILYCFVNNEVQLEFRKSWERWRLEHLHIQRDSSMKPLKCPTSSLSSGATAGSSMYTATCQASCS

Point of comparison: `CC(C)c1n[nH]c2ccc(C(=O)Nc3ccc4c(c3)nc(CN3CC=C(c5cccc6c5OC(C)(c5ccc(C#N)cc5F)O6)CC3)n4CC3CCO3)cc12` (stereo not drawn) [Compound 311], EC50 0.39 nM. Against it:
- O=C(Nc1cnn2[nH]ccc12)c1ccc2c(c1)nc(CN1CC=C(c3cccc(OCc4ccc(Cl)cc4F)n3)CC1)n2C[C@@H]1CCO1 [Compound 401] — 56-fold higher, 21.8 nM
- Cc1n[nH]c2c(C)cc(C(=O)Nc3ccc4nc(CN5CC=C(c6cccc(OCc7ccc(Cl)cc7F)n6)CC5)n(CC5CCO5)c4c3)cc12 (stereo not drawn) [Compound 279] — 2.4-fold higher, 0.95 nM
- O=C(Nc1ccc2c(c1)nc(CN1CC=C(c3cccc(OCc4ccc(Cl)cc4F)n3)CC1)n2C[C@@H]1CCO1)c1cc(F)c2c(c1)C1(CC1)C(=O)N2 [Compound 208] — 1.6-fold lower, 0.25 nM
- CC(C)c1n[nH]c2ccc(C(=O)Nc3ccc4c(c3)nc(CN3CCC(c5cccc6c5OC(C)(c5ccc(C#N)cc5F)O6)CC3)n4CC3CCO3)cc12 (stereo not drawn) [Compound 347] — 2.1-fold higher, 0.81 nM
- CC1(c2ccc(Cl)cc2F)Oc2cccc(-c3cc(F)c(Cc4nc5cc(NC(=O)c6cc(F)c7c(c6)C(C6CC6)C(=O)N7)ccc5n4C[C@@H]4CCO4)c(F)c3)c2O1 (stereo partly drawn) [Compound 326] — 1.6-fold higher, 0.64 nM
- CCc1n[nH]c2ccc(C(=O)Nc3ccc4c(c3)nc(C3CC35CCN(c3cccc(OCc6ccc(Cl)cc6F)n3)CC5)n4CC3CCO3)cc12 (stereo not drawn) [Compound 250] — 3.8-fold higher, 1.49 nM
- Cc1cc2cc(C(=O)Nc3ccc4c(c3)nc(CN3CC=C(c5cccc(OCc6ccc(Cl)cc6F)n5)CC3)n4C[C@@H]3CCO3)ccc2[nH]1 [Compound 394] — 54-fold higher, 21.1 nM
- O=C(Nc1cc(C(F)(F)F)c2c(c1)C1(CC1)C(=O)N2)c1ccc2nc(CN3CC=C(c4cccc(OCc5ccc(Cl)cc5F)n4)CC3)n(C[C@@H]3CCO3)c2c1 [Compound 273] — 7.1-fold higher, 2.78 nM
- O=C(Nc1ccn2nccc2c1)c1ccc2c(c1)nc(CN1CC=C(c3cccc(OCc4ccc(Cl)cc4F)n3)CC1)n2CC1CCO1 (stereo not drawn) [Compound 148] — 54-fold higher, 21.1 nM
- Cc1n[nH]c2ccc(NC(=O)c3ccc4nc(CN5CC=C(c6cccc(OCc7ccc(Cl)cc7F)n6)CC5)n(CC5CCO5)c4c3)cc12 (stereo not drawn) [Compound 263] — 15-fold higher, 5.78 nM
- COc1n[nH]c2ccc(C(=O)Nc3ccc4c(c3)nc(CN3CC=C(c5cccc(OCc6ccc(Cl)cc6F)n5)CC3)n4C[C@@H]3CCO3)cc12 [Compound 201] — 5.1-fold higher, 1.99 nM
- COCCn1c(CN2CCC(c3cccc(OCc4ccc(Cl)cc4F)n3)CC2)nc2cc(C(=O)NCc3ccc(O)c(F)c3)ccc21 [Compound 31] — 95-fold higher, 37.2 nM
- COCCn1c(Cc2ccc(-c3cccc(OCc4ccc(C#N)cc4F)n3)cc2-c2nccn2C)nc2cc(C(=O)NCCc3ccc(S(N)(=O)=O)cc3)ccc21 [Compound 29] — higher, > 10000 nM
- COCCn1c(CN2CCC(c3cccc(OCc4ccc(Cl)cc4F)n3)CC2)nc2cc(C(=O)NCc3ccccc3O)ccc21 [Compound 35] — higher, > 10000 nM
- O=C(N[C@@H](Cc1cnc[nH]1)C(=O)O)c1ccc2c(c1)nc(CN1CCC(c3cccc(OCc4ccc(Cl)cc4F)n3)CC1)n2C[C@@H]1CCO1 [Compound 53] — 290-fold higher, 114 nM
- O=C(Nc1cc(F)c2c(c1)C1(CC1)C(=O)N2)c1ccc2c(c1)nc(CN1CCC(c3cccc(OCc4ccc(Cl)cc4F)n3)CC1)n2C[C@@H]1CCO1 [Compound 104] — 2.7-fold higher, 1.05 nM
- Cc1n[nH]c2c(C3CC3)cc(NC(=O)c3ccc4c(c3)nc(CN3CC=C(c5cccc(OCc6ccc(Cl)cc6F)n5)CC3)n4C[C@@H]3CCO3)cc12 [Compound 171] — 24-fold higher, 9.53 nM
- Cc1n[nH]c2c(Cl)cc(C(=O)Nc3ccc4c(c3)nc(CN3CCC(c5cccc6c5OC(C)(c5ccc(Cl)cc5F)O6)CC3)n4CC3CCO3)cc12 (stereo not drawn) [Compound 344] — 2.6-fold higher, 1.02 nM
- Cc1cc(NC(=O)c2ccc3c(c2)nc(CN2CC=C(c4cccc5c4OC(C)(c4ccc(Cl)cc4F)O5)CC2)n3CC2CCO2)cc2c(C(F)(F)F)n[nH]c12 (stereo not drawn) [Compound 296] — 4.9-fold higher, 1.92 nM
- O=C(Nc1ccc2[nH]nc(F)c2c1)c1ccc2c(c1)nc(CN1CC=C(c3cccc(OCc4ccc(Cl)cc4F)n3)CC1)n2C[C@@H]1CCO1 [Compound 139] — 39-fold higher, 15.2 nM
- Cc1n[nH]c2c(Cl)cc(C(=O)Nc3ccc4c(c3)nc(C3CC35CCN(c3cccc(OCc6ccc(Cl)cc6F)n3)CC5)n4CC3CCO3)cc12 (stereo not drawn) [Compound 248] — 3.3-fold higher, 1.28 nM
- Cc1cc2c(C#N)ccc(COc3cccc(C4=CCN(Cc5nc6cc(NC(=O)c7ccc8[nH]nc(C)c8c7)ccc6n5C[C@@H]5CCO5)CC4)n3)c2o1 [Compound 358] — 2.5-fold higher, 0.98 nM
- CCc1n[nH]c2ccc(C(=O)Nc3ccc4c(c3)nc(CN3CCC(c5cccc6c5OC(C)(c5ccc(C#N)cc5F)O6)CC3)n4CC3CCO3)cc12 (stereo not drawn) [Compound 346] — 1.9-fold higher, 0.76 nM
- Cc1cc(NC(=O)c2ccc3c(c2)nc(CN2CCC(c4cccc5c4OC(C)(c4ccc(Cl)cc4F)O5)CC2)n3C[C@@H]2CCO2)cc2c1NC(=O)C21CC1 (stereo partly drawn) [Compound 337] — within 1.5-fold, 0.45 nM
- O=C(Nc1ccc2[nH]ncc2c1)c1ccc2c(c1)nc(CN1CCC(c3cccc(OCc4ccc(Cl)cc4F)n3)CC1)n2C[C@@H]1CCO1 [Compound 87] — 26-fold higher, 10.1 nM
- O=C(Nc1ccc2nc(CN3CC=C(c4cccc(OCc5ccc(Cl)cc5F)n4)CC3)n(C[C@@H]3CCO3)c2c1)c1cc(F)c2c(c1)C1(CC1)C(=O)N2 [Compound 286] — 1.9-fold lower, 0.21 nM
- CC(C)c1n[nH]c2ccc(C(=O)Nc3ccc4c(c3)nc(CN3CC=C(c5cccc(OCc6ccc(Cl)cc6F)n5)CC3)n4C[C@@H]3CCO3)cc12 [Compound 223] — 2.4-fold higher, 0.95 nM
- COCCn1c(CN2CCC(c3cccc(OCc4ccc(Cl)cc4F)n3)CC2)nc2cc(C(=O)NCc3ccc(O)c(O)c3)ccc21 [Compound 33] — 160-fold higher, 61 nM
- Cc1cc(NC(=O)c2ccc3c(c2)nc(CN2CC=C(c4cccc(OCc5ccc(C#N)cc5F)n4)CC2)n3C[C@@H]2CCO2)cc2c(C3CC3)n[nH]c12 [Compound 185] — 3.4-fold higher, 1.32 nM
- Cc1cc(C(=O)Nc2ccc3c(c2)nc(CN2CC=C(c4cccc5c4OC(C)(c4ccc(Cl)cc4F)O5)CC2)n3C[C@@H]2CCO2)cc2c1NC(=O)C21CC1 (stereo partly drawn) [Compound 307] — 1.9-fold lower, 0.21 nM
- O=C(Nc1ccc2[nH]nc(Cl)c2c1)c1ccc2nc(CN3CC=C(c4cccc(OCc5ccc(Cl)cc5F)n4)CC3)n(CC3CCO3)c2c1 (stereo not drawn) [Compound 269] — 28-fold higher, 10.8 nM
- COCCn1c(C2CC23CCN(c2cccc(OCc4ccc(C#N)cc4F)n2)CC3)nc2ccc(C(=O)Nc3ccc4[nH]nc(C)c4c3)cc21 (stereo not drawn) [Compound 8] — 3.4-fold higher, 1.33 nM
- N#Cc1ccc(COc2cccc(C3CCN(Cc4nc5cc(C(=O)NCC(=O)N6C[C@@H](O)C[C@H]6C(=O)O)ccc5n4C[C@@H]4CCO4)CC3)n2)c(F)c1 [Compound 56] — 2.5-fold higher, 0.97 nM
- CCc1n[nH]c2ccc(NC(=O)c3ccc4c(c3)nc(CN3CCC(c5cccc(OCc6ccc(C#N)cc6F)n5)CC3)n4C[C@@H]3CCO3)cc12 [Compound 135] — 3.2-fold higher, 1.25 nM
- Cc1n[nH]c2ccc(NC(=O)c3ccc4c(n3)nc(CN3CC=C(c5cccc(OCc6ccc(Cl)cc6F)n5)CC3)n4C[C@@H]3CCO3)cc12 [Compound 136] — 5.6-fold higher, 2.19 nM
- CC1(c2ccc(Cl)cc2F)Oc2cccc(C3=CCN(Cc4nc5cc(C(=O)Nc6ccc7[nH]nc(C8CC8)c7c6)ccc5n4CC4CCO4)CC3)c2O1 (stereo not drawn) [Compound 330] — 2.3-fold higher, 0.88 nM
- Cc1[nH]c2ccc(C(=O)Nc3ccc4c(c3)nc(CN3CC=C(c5cccc(OCc6ccc(Cl)cn6)n5)CC3)n4C[C@@H]3CCO3)cc2c1C [Compound 392] — 26-fold higher, 10.1 nM
- Cn1c(=O)[nH]c2ccc(NC(=O)c3ccc4c(c3)nc(CN3CC=C(c5cccc(OCc6ccc(Cl)cc6F)n5)CC3)n4C[C@@H]3CCO3)cc21 [Compound 146] — 62-fold higher, 24 nM
